Series [1] concerns the target T1, hVR1 (Homo sapiens, UniProt Q8NER1).
T1 construct: expressed in transfected cells; host or cells: HEK293
Briefly: Human VR1 (hVR1) Binding Assay ([3H] RTX binding). Conditions: inhibition of [3H] RTX binding, membranes of HEK293 cells transfected with hVR1.

Series [2] relates to male Sprague-Dawley rats. In words: Chemically-Induced Models of Inflammatory Pain (CFA, thermal hyperalgesia, radiant heat). Conditions: 5 h, rat, 10 mg/kg oral, maximum during 300 min test, read-out: % Reversal (maximal percent reversal of hypersensitivity). The class given is in vivo. On the procedure: Compounds of the present invention were tested in animal models of inflammation and inflammatory pain. To assess the ability of test compounds to reverse thermal hyperalgesia, baseline response latencies on a radiant heat (RH) paw stimulator were obtained before an intraplantar injection of 100 μL (1 μg/μL) CFA (1:1 CFA:saline) in male Sprague-Dawley rats. Only withdrawal responses that were quick hind paw movements (with or without licking of the hind paw) were recorded. Paw movements associated with locomotion or a shifting of weight were not considered a withdrawal response. The stimulus intensity that produced 10-15 sec baseline withdrawal latencies was used and a maximum cutoff of 20 sec was imposed. Hypersensitivity was evaluated 24 hr after CFA.
Following the post-inflammogen latency assessment, rats were orally dosed (2.5 mL/kg) with test compound (10 mg/kg) or vehicle (20% hydroxypropyl beta cyclodextran). To determine the time of peak effect, latencies were redetermined 30, 60, 100, 180 and 300 min after compound administration.
Data are presented as the maximal percent reversal of hypersensitivity obtained during the 300 min test, which was calculated for each animal according to the formula: % reversal=100%×(treatment response−post-inflammogen response)/(pre-inflammogen response−post-inflammogen response)

The target in series [3] is T1, hVR1. Briefly: Human VR1 (hVR1) Functional Assay (FLIPR intracellular calcium, capsaicin challenge). It is filed as cell-based. Conditions: capsaicin 0.030 μM, HEK293 cells expressing hVR1; for inhibition at 1 µM: test concentration 1 μM. For orientation: Calcium flux is commonly read through the fluorescence of an indicator in the cells.

T1 sequence (Q8NER1 whole entry): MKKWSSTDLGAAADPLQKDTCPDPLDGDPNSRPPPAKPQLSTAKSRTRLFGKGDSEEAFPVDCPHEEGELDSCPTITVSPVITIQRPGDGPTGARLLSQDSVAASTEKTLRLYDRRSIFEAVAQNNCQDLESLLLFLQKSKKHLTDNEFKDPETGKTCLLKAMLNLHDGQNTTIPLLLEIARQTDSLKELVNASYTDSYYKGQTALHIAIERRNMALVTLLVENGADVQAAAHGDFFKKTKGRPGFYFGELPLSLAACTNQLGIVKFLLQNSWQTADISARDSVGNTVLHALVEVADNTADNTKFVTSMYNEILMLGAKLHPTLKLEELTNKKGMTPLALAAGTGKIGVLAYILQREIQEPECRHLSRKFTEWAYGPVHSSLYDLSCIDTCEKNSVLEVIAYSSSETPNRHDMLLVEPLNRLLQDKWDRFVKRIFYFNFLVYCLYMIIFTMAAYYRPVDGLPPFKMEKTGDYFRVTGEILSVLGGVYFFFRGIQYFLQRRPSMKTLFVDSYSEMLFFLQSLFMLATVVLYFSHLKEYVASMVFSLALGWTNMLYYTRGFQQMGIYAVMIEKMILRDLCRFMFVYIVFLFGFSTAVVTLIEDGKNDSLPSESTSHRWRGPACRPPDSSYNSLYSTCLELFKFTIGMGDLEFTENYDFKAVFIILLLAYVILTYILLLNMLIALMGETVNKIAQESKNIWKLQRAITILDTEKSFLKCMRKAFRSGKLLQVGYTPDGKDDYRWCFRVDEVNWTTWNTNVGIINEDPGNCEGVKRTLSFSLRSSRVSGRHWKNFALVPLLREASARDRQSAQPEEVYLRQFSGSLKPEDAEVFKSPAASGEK

As a reminder, the Ki is a dissociation constant, usually derived from enzyme kinetics or from competition with a known ligand. Higher therefore signals weaker binding. Broadly, the IC50 is the point on the concentration scale where inhibition reaches its midpoint. A word on the inhibition: it is the drop in the measured response relative to a control, in per cent. `CS(=O)(=O)Nc1ccccc1-c1ccc2[nH]c(/C=C/c3ccc(C(F)(F)F)cc3)nc2c1` [Cpd 17, (E)-N-(2-{2-[2-(4-trifluoromethyl-phenyl)-vinyl]-1H-benzimidazol-5-yl}-phenyl)-methanesulfonamide]: the Ki in series [1] stood at 8.7 nM. The inhibition in vivo at 10 mg/kg in series [2] came to 104%. In series [3], the IC50 was 8 nM and the inhibition at 1 µM stood at 100%.
In the case of `CS(=O)(=O)Nc1ccccc1-c1ccc2[nH]c(/C=C/c3ccc(OC(F)(F)F)cc3)nc2c1` [Cpd 22, (E)-N-(2-{2-[2-(4-trifluoromethoxy-phenyl)-vinyl]-1H-benzimidazol-5-yl}-phenyl)-methanesulfonamide], the inhibition in vivo at 10 mg/kg in series [2] was determined as 18%. In addition, the IC50 in series [3] was determined as 18 nM.
On to `CC(C)(O)c1ccccc1-c1ccc2[nH]c(/C=C/c3ccc(OC(F)(F)F)cc3)nc2c1` [Cpd 23, (E)-2-(2-{2-[2-(4-trifluoromethoxy-phenyl)-vinyl]-1H-benzimidazol-5-yl}-phenyl)-propan-2-ol], for which the inhibition in vivo at 10 mg/kg in series [2] was 31%.
Regarding `CS(=O)(=O)Nc1ccccc1-c1ccc2[nH]c(CCc3ccc(C(F)(F)F)cc3)nc2c1` [Cpd 31, N-(2-{2-[2-(4-trifluoromethyl-phenyl)-ethyl]-1H-benzimidazol-5-yl}-phenyl)-methanesulfonamide], in series [2], the inhibition in vivo at 10 mg/kg amounted to 72%. Besides, the IC50 in series [3] worked out at 13 nM.
On to `Oc1ccccc1-c1ccc2[nH]c(/C=C/c3ccc(SC(F)(F)F)cc3)nc2c1` [Cpd 36, (E)-2-{2-[2-(4-trifluoromethylsulfanyl-phenyl)-vinyl]-1H-benzimidazol-5-yl}-phenol], for which, in series [1], affinity was put at a Ki of 820 nM. Moreover, the inhibition at 1 µM in series [3] was determined as 44%.
In turn, `CC(=O)c1ccccc1-c1ccc2[nH]c(/C=C/c3ccc(S(=O)(=O)C(F)(F)F)cc3)nc2c1` [Cpd 40, (E)-1-(2-{2-[2-(4-trifluoromethanesulfonyl-phenyl)-vinyl]-1H-benzimidazol-5-yl}-phenyl)-ethanone] came in with a Ki in series [1] of 81 nM. Further, in series [3], the IC50 was 54 nM and the inhibition at 1 µM was 99%.
In the case of `CC(C)(O)c1ccccc1-c1ccc2[nH]c(/C=C/c3ccc(S(=O)(=O)C(F)(F)F)cc3)nc2c1` [Cpd 47, (E)-2-(2-{2-[2-(4-trifluoromethanesulfonyl-phenyl)-vinyl]-1H-benzimidazol-5-yl}-phenyl)-propan-2-ol], the inhibition in vivo at 10 mg/kg in series [2] came to 58%. Further, in series [3], the IC50 is 20 nM and the inhibition at 1 µM was 100%.
The compound `CC(=O)Nc1ccccc1-c1cc2nc(/C=C/c3ccc(C(C)(C)C)cc3)[nH]c2cc1C(F)(F)F` [Cpd 50, (E)-N-(2-{2-[2-(4-tert-butyl-phenyl)-vinyl]-6-trifluoromethyl-1H-benzimidazol-5-yl}-phenyl)-acetamide] registered a Ki in series [1] of 16 nM. Besides, in series [3], the IC50 stood at 100 nM and the inhibition at 1 µM is 100%.
The corresponding values for `CC(C)(C)c1ccc(/C=C/c2nc3cc(-c4ccccc4CO)c(C(F)(F)F)cc3[nH]2)cc1` [Cpd 51, (E)-(2-{2-[2-(4-tert-butyl-phenyl)-vinyl]-6-trifluoromethyl-1H-benzimidazol-5-yl}-phenyl)-methanol] are 6.4 nM, 66 nM and 100%.
The corresponding values for `CC(=O)Nc1ccccc1-c1cc2nc(/C=C/c3ccc(C(F)(F)F)cc3)[nH]c2cc1C(F)(F)F` [Cpd 56, (E)-N-(2-{6-trifluoromethyl-2-[2-(4-trifluoromethyl-phenyl)-vinyl]-1H-benzimidazol-5-yl}-phenyl)-acetamide] are 120 nM, 110 nM and 100%.
In the same order, the values of `NS(=O)(=O)c1ccccc1-c1ccc2[nH]c(/C=C/c3ccc(OC(F)(F)F)cc3)nc2c1` [Cpd 69, (E)-2-{2-[2-(4-trifluoromethoxy-phenyl)-vinyl]-1H-benzimidazol-5-yl}-benzenesulfonamide] are 6 nM, 6 nM and 98%.
Broadly, the melting point is the temperature of the solid-liquid transition. In the case of `NS(=O)(=O)c1ccccc1-c1ccc2[nH]c(/C=C/c3ccc(C(F)(F)F)cc3)nc2c1` [Cpd 70, (E)-2-{2-[2-(4-trifluoromethyl-phenyl)-vinyl]-1H-benzimidazol-5-yl}-benzenesulfonamide], the melting point was in the range of 168 to 170 °C. For the same compound, the Ki in series [1] was determined as 8.6 nM. Besides, in series [2], the inhibition in vivo at 10 mg/kg was 76%. Also, in series [3], the IC50 came to 7 nM and the inhibition at 1 µM was determined as 100%.
`NS(=O)(=O)c1ccccc1-c1ccc2[nH]c(/C=C/c3ccc(S(=O)(=O)C(F)(F)F)cc3)nc2c1` [Cpd 71, (E)-2-{2-[2-(4-trifluoromethanesulfonyl-phenyl)-vinyl]-1H-benzimidazol-5-yl}-benzenesulfonamide] showed a Ki in series [1] of 22 nM. Further, in series [3], the concentration for half-maximal inhibition (IC50) was determined as 22 nM and the inhibition at 1 µM amounted to 99%.
On to `CC(C)(O)c1ccccc1-c1ccc2[nH]c(/C=C/c3ccc(Cl)cc3)nc2c1` [Cpd 78, (E)-2-(2-{2-[2-(4-chloro-phenyl)-vinyl]-1H-benzimidazol-5-yl}-phenyl)-propan-2-ol], for which the affinity in series [1] corresponds to a Ki of 6.4 nM. Further, the inhibition in vivo at 10 mg/kg in series [2] is 19%. Also, in series [3], the IC50 was determined as 5 nM and the inhibition at 1 µM is 99%.
Turning to `NS(=O)(=O)c1ccccc1-c1ccc2[nH]c(/C=C/c3ccc(Cl)cc3)nc2c1` [Cpd 79, (E)-2-{2-[2-(4-chloro-phenyl)-vinyl]-1H-benzimidazol-5-yl}-benzenesulfonamide], the Ki in series [1] turned out to be 18 nM. In series [3], the IC50 stood at 7 nM and the inhibition at 1 µM was found to be 100%.
For the compound `CC(C)(O)c1ccccc1-c1ccc2[nH]c(/C=C/c3cccc(C(F)(F)F)c3)nc2c1` [Cpd 114, (E)-2-(2-{2-[2-(3-trifluoromethyl-phenyl)-vinyl]-1H-benzimidazol-5-yl}-phenyl)-propan-2-ol], the inhibition in vivo at 10 mg/kg in series [2] was found to be 56%. Also, in series [3], the IC50 was 3 nM and the inhibition at 1 µM stood at 99%.
Turning to `CNS(=O)(=O)c1ccccc1-c1ccc2[nH]c(/C=C/c3ccc(C(F)(F)F)cc3)nc2c1` [Cpd 310, (E)-N-methyl-2-{2-[2-(4-trifluoromethyl-phenyl)-vinyl]-1H-benzimidazol-5-yl}-benzenesulfonamide], the affinity in series [1] corresponds to a Ki of 10 nM. Besides, the inhibition in vivo at 10 mg/kg in series [2] came to 23%. In series [3], the half-maximal inhibitory concentration (IC50) was 6 nM and the inhibition at 1 µM amounted to 100%.
Compound `CNS(=O)(=O)c1ccccc1-c1ccc2[nH]c(/C=C/c3ccc(Br)cc3)nc2c1` [Cpd 312, (E)-2-{2-[2-(4-bromo-phenyl)-vinyl]-1H-benzimidazol-5-yl}-N-methyl-benzenesulfonamide] yielded a Ki in series [1] of 19 nM. Further, in series [3], the 50% inhibitory concentration (IC50) came out at 6 nM and the inhibition at 1 µM was determined as 100%.
Regarding `CNS(=O)(=O)c1ccccc1-c1ccc2[nH]c(/C=C/c3ccc(C(F)(F)F)c(F)c3)nc2c1` [Cpd 319, (E)-2-{2-[2-(3-fluoro-4-trifluoromethyl-phenyl)-vinyl]-1H-benzimidazol-5-yl}-N-methyl-benzenesulfonamide], in series [1], the affinity, expressed as Ki, was 6 nM. In addition, in series [3], the IC50 was found to be 10 nM and the inhibition at 1 µM came out at 100%.
The corresponding values for `CC(C)c1ccc(/C=C/c2nc3cc(-c4ccccc4NS(C)(=O)=O)ccc3[nH]2)cc1` [Cpd 407, (E)-N-(2-{2-[2-(4-isopropyl-phenyl)-vinyl]-1H-benzimidazol-5-yl}-phenyl)-methanesulfonamide] are 5.7 nM, 9 nM and 96%.
The compound `NS(=O)(=O)c1ccccc1-c1ccc2[nH]c(/C=C/c3ccc(F)cc3)nc2c1` [Cpd 434, (E)-2-{2-[2-(4-fluoro-phenyl)-vinyl]-1H-benzimidazol-5-yl}-benzenesulfonamide] returned a Ki in series [1] of 39 nM. Besides, in series [3], the IC50 is 7 nM and the inhibition at 1 µM was found to be 98%.
Turning to `CC(C)(O)c1ccccc1-c1ccc2[nH]c(CCc3ccc(C(F)(F)F)cc3)nc2c1` [Cpd 464, 2-(2-{2-[2-(4-trifluoromethyl-phenyl)-ethyl]-1H-benzimidazol-5-yl}-phenyl)-propan-2-ol], the inhibition in vivo at 10 mg/kg in series [2] is 65%. Further, in series [3], the IC50 came out at 3 nM and the inhibition at 1 µM is 100%.

(Values after patent US7951829B2, “Benzimidazole modulators of VR1” (Janssen Pharmaceutica NV, priority 2006, dated 2011).)
